In ChEMBL document CHEMBL1201862, “PubChem BioAssay data set” (2004):
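Step 1: Grow cells in 96-well plates. Step 2: Expose to compound for 48 hours at 5 concentrations. Step 3: Interpolate endpoints linearly; if unreached, use highest concentration. Abbreviation: GI50, concentration required for 50% inhibition of growth.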 Calls of active or inactive are those of the source. Cut-off read from the data, not from the text of the source: active = GI50 up to about 1.1 µM and inactive = higher.

How the values were obtained:
Experiment in all cases: NCI-60 cell line screen, 48 h
ACHN = tested on: ACHN
TK-10 = tested on: TK-10
MDA-MB-435 = tested on: MDA-MB-435
UACC-257 = tested on: UACC-257
HCT-15 = tested on: HCT-15
MOLT-4 = tested on: MOLT-4
786-0 = tested on: 786-0
NCI/ADR-RES = tested on: NCI/ADR-RES
Hs-578T = tested on: Hs-578T
SK-MEL-2 = tested on: SK-MEL-2
UO-31 = tested on: UO-31
K562 = tested on: K562
CAKI-1 = tested on: CAKI-1
KM12 = tested on: KM12
SK-MEL-28 = tested on: SK-MEL-28
EKVX = tested on: EKVX
HL-60 = tested on: HL-60
DU-145 = tested on: DU-145
MDA-N = tested on: MDA-N
OVCAR-8 = tested on: OVCAR-8

O=C1c2cc3ccccc3cc2C2(c3ccc(Cl)cc3)NCCN12 (stereo not given)
GI50 (ACHN): 33 µM (inactive)
GI50 (TK-10): 34.8 µM (inactive)
GI50 (MDA-MB-435): 33 µM (inactive)
GI50 (UACC-257): 31.8 µM (inactive)
GI50 (HCT-15): 27 µM
GI50 (MOLT-4): 33.2 µM (inactive)
GI50 (786-0): 38.1 µM (inactive)
GI50 (NCI/ADR-RES): 32.8 µM (inactive)
GI50 (Hs-578T): 38.3 µM (inactive)
GI50 (SK-MEL-2): 24.6 µM (inactive)
GI50 (UO-31): 29.9 µM (inactive)
GI50 (K562): 61.7 µM (inactive)
GI50 (CAKI-1): 44.7 µM (inactive)
GI50 (KM12): 20.7 µM (inactive)
GI50 (SK-MEL-28): 39.6 µM (inactive)
GI50 (EKVX): 26.5 µM (inactive)
GI50 (HL-60): 25.8 µM (inactive)
GI50 (DU-145): 40.6 µM (inactive)
GI50 (MDA-N): 28.2 µM (inactive)
GI50 (OVCAR-8): 33.3 µM (inactive)

Nc1nc(N)c(N=O)c(OCC2CCCCC2)n1
GI50 (ACHN): 1.06 µM (active)
GI50 (TK-10): 6.64 µM (inactive)
GI50 (MDA-MB-435): 14.3 µM (inactive)
GI50 (UACC-257): 9.02 µM (inactive)
GI50 (HCT-15): 5.5 µM
GI50 (MOLT-4): 6.64 µM (inactive)
GI50 (786-0): 11.6 µM (inactive)
GI50 (NCI/ADR-RES): 18.9 µM (inactive)
GI50 (Hs-578T): 6.73 µM (inactive)
GI50 (SK-MEL-2): 11 µM (inactive)
GI50 (UO-31): 5.16 µM (inactive)
GI50 (K562): 21.9 µM (inactive)
GI50 (CAKI-1): 7.55 µM (inactive)
GI50 (KM12): 18.7 µM (inactive)
GI50 (SK-MEL-28): 15.7 µM (inactive)
GI50 (EKVX): 20.5 µM (inactive)
GI50 (HL-60): 14.7 µM (inactive)
GI50 (DU-145): 7.45 µM (inactive)
GI50 (MDA-N): 11 µM (inactive)
GI50 (OVCAR-8): 15 µM (inactive)

O=C1OC(CCCN2CCCCC2)(c2ccccc2)CC12CCCC2 (stereo not given)
GI50 (ACHN): > 100 µM (inactive)
GI50 (TK-10): > 100 µM (inactive)
GI50 (MDA-MB-435): 67.8 µM (inactive)
GI50 (UACC-257): 23.1 µM (inactive)
GI50 (HCT-15): > 95.3 µM
GI50 (MOLT-4): 40 µM (inactive)
GI50 (786-0): > 100 µM (inactive)
GI50 (NCI/ADR-RES): > 100 µM (inactive)
GI50 (Hs-578T): 63.1 µM (inactive)
GI50 (SK-MEL-2): > 100 µM (inactive)
GI50 (UO-31): 73.1 µM (inactive)
GI50 (K562): 40.5 µM (inactive)
GI50 (CAKI-1): > 100 µM (inactive)
GI50 (KM12): > 100 µM (inactive)
GI50 (SK-MEL-28): 22.3 µM (inactive)
GI50 (EKVX): > 100 µM (inactive)
GI50 (HL-60): 52.5 µM (inactive)
GI50 (DU-145): > 100 µM (inactive)
GI50 (MDA-N): > 77.6 µM (inactive)
GI50 (OVCAR-8): > 100 µM (inactive)

O=C(O)c1nc2cc(C(F)(F)F)ccc2[nH]c1=O
GI50 (ACHN): > 100 µM (inactive)
GI50 (TK-10): > 100 µM (inactive)
GI50 (MDA-MB-435): > 100 µM (inactive)
GI50 (UACC-257): > 100 µM (inactive)
GI50 (HCT-15): > 100 µM
GI50 (MOLT-4): > 100 µM (inactive)
GI50 (786-0): > 100 µM (inactive)
GI50 (NCI/ADR-RES): > 100 µM (inactive)
GI50 (Hs-578T): > 100 µM (inactive)
GI50 (SK-MEL-2): > 100 µM (inactive)
GI50 (UO-31): 60.8 µM (inactive)
GI50 (K562): > 100 µM (inactive)
GI50 (CAKI-1): > 100 µM (inactive)
GI50 (KM12): > 100 µM (inactive)
GI50 (SK-MEL-28): > 100 µM (inactive)
GI50 (EKVX): > 100 µM (inactive)
GI50 (HL-60): > 100 µM (inactive)
GI50 (DU-145): > 100 µM (inactive)
GI50 (MDA-N): > 100 µM (inactive)
GI50 (OVCAR-8): > 100 µM (inactive)

Nc1nc(Cl)cc(NCC2(CO)CCC2)n1
GI50 (ACHN): > 100 µM (inactive)
GI50 (TK-10): > 100 µM (inactive)
GI50 (MDA-MB-435): > 100 µM (inactive)
GI50 (UACC-257): > 10 µM (inactive)
GI50 (HCT-15): > 100 µM
GI50 (MOLT-4): > 100 µM (inactive)
GI50 (786-0): > 100 µM (inactive)
GI50 (NCI/ADR-RES): > 100 µM (inactive)
GI50 (Hs-578T): > 100 µM (inactive)
GI50 (SK-MEL-2): > 100 µM (inactive)
GI50 (UO-31): > 100 µM (inactive)
GI50 (K562): > 100 µM (inactive)
GI50 (CAKI-1): > 100 µM (inactive)
GI50 (KM12): > 100 µM (inactive)
GI50 (SK-MEL-28): > 100 µM (inactive)
GI50 (EKVX): 75.2 µM (inactive)
GI50 (HL-60): > 100 µM (inactive)
GI50 (DU-145): > 100 µM (inactive)
GI50 (MDA-N): > 100 µM (inactive)
GI50 (OVCAR-8): > 100 µM (inactive)

O=C(NC12CC3CC(CC(C3)C1)C2)n1cnc2cncnc21
GI50 (ACHN): 34.8 µM (inactive)
GI50 (TK-10): 30.2 µM (inactive)
GI50 (MDA-MB-435): 31.3 µM (inactive)
GI50 (UACC-257): 56.5 µM (inactive)
GI50 (HCT-15): 27.7 µM
GI50 (MOLT-4): 33.3 µM (inactive)
GI50 (786-0): 50.1 µM (inactive)
GI50 (NCI/ADR-RES): 28.6 µM (inactive)
GI50 (Hs-578T): 54.6 µM (inactive)
GI50 (SK-MEL-2): 18.2 µM (inactive)
GI50 (UO-31): 91.2 µM (inactive)
GI50 (K562): 35.1 µM (inactive)
GI50 (CAKI-1): 28.4 µM (inactive)
GI50 (KM12): 30.8 µM (inactive)
GI50 (SK-MEL-28): > 100 µM (inactive)
GI50 (EKVX): 37.6 µM (inactive)
GI50 (HL-60): 28.7 µM (inactive)
GI50 (DU-145): 25.6 µM (inactive)
GI50 (MDA-N): 33.5 µM (inactive)
GI50 (OVCAR-8): 30.1 µM (inactive)

CS(=O)(=O)C(=Cc1ccccc1Cl)S(C)(=O)=O
GI50 (ACHN): > 100 µM (inactive)
GI50 (TK-10): > 100 µM (inactive)
GI50 (MDA-MB-435): > 27.8 µM (inactive)
GI50 (UACC-257): > 100 µM (inactive)
GI50 (HCT-15): > 100 µM
GI50 (MOLT-4): > 100 µM (inactive)
GI50 (786-0): > 100 µM (inactive)
GI50 (NCI/ADR-RES): > 100 µM (inactive)
GI50 (Hs-578T): > 91.2 µM (inactive)
GI50 (SK-MEL-2): > 100 µM (inactive)
GI50 (UO-31): > 100 µM (inactive)
GI50 (K562): 3.7 µM (inactive)
GI50 (CAKI-1): > 100 µM (inactive)
GI50 (KM12): > 46.5 µM (inactive)
GI50 (SK-MEL-28): > 100 µM (inactive)
GI50 (EKVX): > 100 µM (inactive)
GI50 (HL-60): 1.14 µM (inactive)
GI50 (DU-145): > 100 µM (inactive)
GI50 (MDA-N): > 46.5 µM (inactive)
GI50 (OVCAR-8): > 100 µM (inactive)
